Results taken from EP3390415B1, “(R)- AND (S)-1-(3-(3-N,N-DIMETHYLAMINOCARBONYL)PHENOXYL-4-NITROPHENYL)-1-ETHYL-N,N'-BIS (ETHYLENE)PHOSPHORAMIDATE, COMPOSITIONS AND METHODS FOR THEIR USE AND PREPARATION” (OBI PHARMA, INC., priority 2015, dated 2017).
Read-outs that look alike come from different tables or passages of the source. Each block holds one molecule with its values, some of them ahead of it.

Columns and labels:
Vcap = assay: In vitro human tumor cell line cytotoxicity assay; assay type: cell-based; conditions: for IC50: Homo sapiens, VCaP; for Max Inhibition% / Min Inhibition%: Vcap
HepG2 = assay: In vitro human tumor cell line cytotoxicity assay; assay type: cell-based; conditions: for IC50: Homo sapiens
LIXC012 = assay: In vitro human tumor cell line cytotoxicity assay; assay type: cell-based; conditions: for IC50: Homo sapiens
HCCC9810 = assay: In vitro human tumor cell line cytotoxicity assay; assay type: cell-based; conditions: for IC50: Homo sapiens
[1] = Acute toxicity study in monkeys, body weight; assay type: in vivo, Cynomolgus monkeys; design: unit not given here; conditions: 2 mg/kg IV infusion
Protocol: (§1) TH 3423 and TH 3424 were tested in no naive monkeys (1 male and one female for each compound at 2 mg/kg) with 30-min intravenous infusion, TK sampling: on Day 1 and Day 15: 0.25, 0.5, 0.75, 1 and 2 hr post infusion initiation. Serum chemistry and hematology: pre-dose (Day 1), day 5, day 8 (pre-dose), day 15 (pre-dose), day 22 and day 28. Clinical observation: Daily during the study, total 35 days. Food consumption: Daily during the study, total 35 days. Bodyweight measurement: Twice weekly for five weeks.

SNU-387 = assay: In vitro human tumor cell line cytotoxicity assay; assay type: cell-based; conditions: for IC50: Homo sapiens
[2] = Pharmacokinetics (TK) after 30-min IV infusion in monkeys; assay type: in vivo, Cynomolgus monkeys; conditions: 2 mg/kg 30-min IV infusion; for MRT inf / clearance / half-life / Vd / concentration at 0.25 hr / concentration at 0.5 hr / concentration at 0.75 hr / concentration at 1 hr / concentration at 2 hr: cynomolgus monkey, plasma; for half-life: read-out: Terminal t1/2 (converted); for Vd: read-out: Vss
Protocol: as §1

H460 cells = assay: In vitro proliferation assay, H460; assay type: cell-based; conditions: Homo sapiens, NCI-H460; 2 hrs exposure, wash, additional 70hrs, AlamarBlue; read-out: IC 50 in proliferation assay in H460 cells
Protocol: In vitro proliferation data on the H460 […] human tumor cell line is reported above in the compound table. IC50 values are reported in micromolar and result from exposure of compound at various concentrations for 2 hrs followed by a wash step and addition of fresh media followed by growth and cell viability staining and comparison to a media only treated control.
Specifically, exponentially growing cells were seeded at a density of 4 x 10^3 cells per well in a 96 well plate and incubated at 37°C in 5% CO2, 95% air and 100% relative humidity for 24 hours prior to addition of test compounds. Compounds were solubilized in 100% DMSO at 200 times the desired final test concentration. At the time of drug addition, compounds were further diluted to 4 times the desired final concentration with complete medium. Aliquots of 50 µl of compound at specified concentrations were added to microtiter wells already containing 150 µl of medium, resulting in the final drug concentration reported. After drug addition, the plates were incubated for an additional 2 hours at 37°C, 5% CO2, 95% air, and 100% relative humidity, then the drug was washed off and fresh medium was added and the plates were incubated for addition 70hrs at 37 °C, 5% CO2, 95% air and 100% relative humidity. At the end of this incubation, the viable cells were quantified using the AlamarBlue assay. The drug concentration resulting in growth inhibition of 50% (IC50) was calculated using Prism software (Irvine, CA), and the results were listed in the table.

C3A = assay: In vitro human tumor cell line cytotoxicity assay; assay type: cell-based; conditions: for IC50: Homo sapiens
PLCPRF5 = assay: In vitro human tumor cell line cytotoxicity assay; assay type: cell-based; conditions: for IC50: Homo sapiens
[3] = tested on: A375 melanoma human tumor xenograft; assay: In vivo human tumor xenograft model, antitumor activity; design: species or system nude mice; conditions: 20mpk,qdx5x2,ip
Excerpt: Specific pathogen-free homozygous female nude mice (nu/nu, Charles River Laboratories) were used. Mice were given food and water ad libitum and housed in microisolator cages. Four to six week old animals were identified by microchips (Locus Technology, Manchester, MD, USA) at the time of the experiments. All animal studies were approved by the Institutional Animal Care and Use Committee at Threshold Pharmaceuticals, Inc.
All cell lines were from the American Type Culture Collection (ATCC, Rockville, MD, USA).
Cells were mixed with Matrigel (30% in H460) and 0.2 ml per mouse were subcutaneously implanted to the flank area of the animals. When tumor size reached 100-150 mm^3, mice were randomized into experimental or vehicle groups with 10 mice/group and treatment was started (Day 1). The tested compounds were formulated in 5% DMSO in D5W. All compounds were given by IP, QDx5/wk (5 days on, 2 days off) as one cycle, for a total of 2 cycles. Tumor growth and body weight were measured twice a week. Tumor volume was calculated as (length x width^2)/2. Drug efficacy was assessed as Tumor Growth Inhibition (TGI) and Tumor Growth Delay (TGD). TGI was defined as (1-ΔT/ΔC) x 100, where ΔT/ΔC presented the ratio of the change in mean (or median, if variation within the group was relatively large) tumor volume of the treated group and of the control group. TGD was calculated as the extra days for the treated tumor to reach 500mm^3 as compared to the control group. Animals were culled when individual tumor size reached over 2000mm^3 or mean tumor volume exceeded 1000mm^3 in the group. Data are expressed as the mean ± SEM. One-way analysis of variance with Dunnett post comparison test (GraphPad Prism 4) or two-tailed student's t-test were used for analysis. A P level < 0.05 was considered statistically significant.
This study employed an A375 melanoma human tumor xenograft model and the compounds provided herein were compared to thiotepa and the approved anti melanoma drug, Abraxane. […] Mpk refers to mg/kg.

Recombinant human AKR1C3 = Recombinant human AKR1C3 (Homo sapiens, UniProt P42330); assay: Activation by the aldoketo reductase AKR1C3; assay type: biochemical; conditions: 5 µM, 2 mM NADPH, 37 °C, up to 120 min; FIG. 2
Protocol: Recombinant human AKR1C3 was diluted to 25 µg/mL in phosphate buffered saline (PBS), pH 7.4 (37 °C), containing 2 mM NADPH. TH2870 or progesterone (positive control) in 30% methanol/70% water was added to the reaction mixture at a final concentration of 5 µM and incubated at 37 °C for 120 minutes. At various times up to 120 min, 50 µL of the reaction mixture was taken and 200 µL acetonitrile containing propranolol as internal standard was added, vortex-mixed and centrifuged for 10 min. The resulting supernatant (5 µL) was injected into a LC/MS/MS for quantitation of % remaining TH 2870 and progesterone. The compounds were tested in duplicates.

[4] = both sexes, mean, read-out: Plasma concentration, Mean
[5] = female, read-out: Plasma concentration
[6] = male, read-out: Plasma concentration

Chain of Recombinant human AKR1C3 (P42330 whole entry): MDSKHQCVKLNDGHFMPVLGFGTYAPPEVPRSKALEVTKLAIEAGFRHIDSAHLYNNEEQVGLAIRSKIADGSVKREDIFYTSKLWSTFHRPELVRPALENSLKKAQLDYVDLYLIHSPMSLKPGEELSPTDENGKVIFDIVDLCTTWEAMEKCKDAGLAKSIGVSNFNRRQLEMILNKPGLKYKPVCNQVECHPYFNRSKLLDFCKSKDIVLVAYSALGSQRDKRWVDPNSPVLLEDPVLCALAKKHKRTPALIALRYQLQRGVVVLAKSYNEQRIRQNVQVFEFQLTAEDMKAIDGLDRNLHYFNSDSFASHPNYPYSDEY

Compound: C[C@@H](OP(=O)(N1CC1)N1CC1)c1ccc([N+](=O)[O-])c(Oc2cccc(C(=O)N(C)C)c2)c1 (single isomer, unassigned) [TH3423]
IC50 (Vcap; read-out: AbsIC50): 21.6 nM | IC50 (Vcap; read-out: RelIC50): 26.6 nM | Max Inhibition% (Vcap): 101.0% | Min Inhibition% (Vcap): 1.1% | Max Inhibition% (HepG2): 99.5% | Min Inhibition% (HepG2): -7.2% | IC50 (HepG2; read-out: AbsIC50): 18.7 nM | IC50 (HepG2; read-out: RelIC50): 13.1 nM | Max Inhibition% (LIXC012): 84.8% | Min Inhibition% (LIXC012): -1.1% | IC50 (LIXC012; read-out: AbsIC50): 16.9 nM | IC50 (LIXC012; read-out: RelIC50): 8.1 nM | Max Inhibition% (HCCC9810): 93.7% | Min Inhibition% (HCCC9810): 0.0% | IC50 (HCCC9810; read-out: AbsIC50): 18.7 nM | IC50 (HCCC9810; read-out: RelIC50): 16.8 nM | body weight ([1]; Mean, Day 1): 3.50 | body weight ([1]; Mean, Day 4): 3.39 | body weight ([1]; Mean, Day 8): 3.32 | body weight ([1]; Mean, Day 11): 2.96 | body weight ([1]; female, Day 1): 3.65 | body weight ([1]; female, Day 4): 3.55 | body weight ([1]; female, Day 8): 3.41 | body weight ([1]; female, Day 11): 2.96 | body weight ([1]; male, Day 1): 3.35 | body weight ([1]; male, Day 4): 3.23 | body weight ([1]; male, Day 8): 3.23 | body weight ([1]; male, Day 11): 2.95 | Max Inhibition% (SNU-387): 99.8% | Min Inhibition% (SNU-387): 1.3% | IC50 (SNU-387; read-out: AbsIC50): 39.7 nM | IC50 (SNU-387; read-out: RelIC50): 46.3 nM | AUCINF ([2]; Mean): 770 hr^∗ng/mL | AUClast ([2]; Mean): 766 hr^∗ng/mL | MRT inf ([2]; both sexes, Mean): 12.2 min | clearance ([2]; both sexes, Mean): 43.3 mL/min/kg | half-life ([2]; both sexes, Mean): 7.74 min | Vd ([2]; both sexes, Mean): 0.527 L/kg | concentration at 0.25 hr [2, 4]: 1210 ng/mL | concentration at 0.5 hr [2, 4]: 1400 ng/mL | concentration at 0.75 hr [2, 4]: 336 ng/mL | concentration at 1 hr [2, 4]: 70 ng/mL | concentration at 2 hr ([2]; both sexes, mean, 2 hr, read-out: Plasma concentration, Mean): 1.03 ng/mL | concentration at 0.25 hr [2, 5]: 1320 ng/mL | concentration at 0.5 hr [2, 5]: 1370 ng/mL | concentration at 0.75 hr [2, 5]: 313 ng/mL | concentration at 1 hr [2, 5]: 55 ng/mL | MRT inf ([2]; female): 10.8 min | clearance ([2]; female): 43.5 mL/min/kg | half-life ([2]; female): 6.48 min | Vd ([2]; female): 0.469 L/kg | concentration at 0.25 hr [2, 6]: 1100 ng/mL | concentration at 0.5 hr [2, 6]: 1420 ng/mL | concentration at 0.75 hr [2, 6]: 359 ng/mL | concentration at 1 hr [2, 6]: 85 ng/mL | concentration at 2 hr ([2]; male, 2 hr, read-out: Plasma concentration): 1.03 ng/mL | MRT inf ([2]; male): 13.6 min | clearance ([2]; male): 43.2 mL/min/kg | half-life ([2]; male): 9 min | Vd ([2]; male): 0.584 L/kg | Plasma concentration ([2]; female, 2 hr): BQL | AUCINF ([2]; female): 766 hr^∗ng/mL | AUClast ([2]; female): 758 hr^∗ng/mL | AUCINF ([2]; male): 774 hr^∗ng/mL | AUClast ([2]; male): 773 hr^∗ng/mL | IC50 (H460 cells): 5 nM | Max Inhibition% (C3A): 98.5% | Min Inhibition% (C3A): 5.4% | IC50 (C3A; read-out: AbsIC50): 11.7 nM | IC50 (C3A; read-out: RelIC50): 9.6 nM | Max Inhibition% (PLCPRF5): 77.7% | Min Inhibition% (PLCPRF5): -4.9% | IC50 (PLCPRF5; PLC-PRF-5, read-out: AbsIC50): 207 nM | IC50 (PLCPRF5; PLC-PRF-5, read-out: RelIC50): 156 nM

IC50 (H460 cells): 5 nM | disappearance of compound (% remaining) in the presence of AKR1C3 (Recombinant human AKR1C3): rapid disappearance
Compound: CC(OP(=O)(N1CC1)N1CC1)c1ccc([N+](=O)[O-])c(Oc2cccc(C(=O)N(C)C)c2)c1 (racemic) [TH 2870, (R,S)-1-(3-(3-N,N-dimethylaminocarbonyl)phenoxyl-4-nitrophenyl)-1-ethyl-N,N'-bis(ethylene)phosphoramidate]
IC50 (Vcap; read-out: AbsIC50): 15.2 nM | IC50 (Vcap; read-out: RelIC50): 22.7 nM | Max Inhibition% (Vcap): 100.2% | Min Inhibition% (Vcap): -3.4% | Max Inhibition% (HepG2): 98.9% | Min Inhibition% (HepG2): 3.3% | IC50 (HepG2; read-out: AbsIC50): 6.4 nM | IC50 (HepG2; read-out: RelIC50): 5.5 nM | Max Inhibition% (LIXC012): 87.1% | Min Inhibition% (LIXC012): 6.6% | IC50 (LIXC012; read-out: AbsIC50): 18.7 nM | IC50 (LIXC012; read-out: RelIC50): 27.4 nM | Max Inhibition% (HCCC9810): 95.4% | Min Inhibition% (HCCC9810): -2.6% | IC50 (HCCC9810; read-out: AbsIC50): 29.4 nM | IC50 (HCCC9810; read-out: RelIC50): 29.2 nM | Max Inhibition% (SNU-387): 102.8% | Min Inhibition% (SNU-387): 1.7% | IC50 (SNU-387; read-out: AbsIC50): 34 nM | IC50 (SNU-387; read-out: RelIC50): 42.2 nM | TGD500, Days (vs. vehicle) [3]: >13 days | TGI [3]: 98.0% | Max Inhibition% (C3A): 98.1% | Min Inhibition% (C3A): 8.1% | IC50 (C3A; read-out: AbsIC50): 6.2 nM | IC50 (C3A; read-out: RelIC50): 7.1 nM | Max Inhibition% (PLCPRF5): 53.3% | Min Inhibition% (PLCPRF5): -1.7% | IC50 (PLCPRF5; PLC-PRF-5, read-out: AbsIC50): 575 nM | IC50 (PLCPRF5; PLC-PRF-5, read-out: RelIC50): 474 nM

disappearance of compound (% remaining) in the presence of AKR1C3 (Recombinant human AKR1C3): reduced slowly
Compound: CC(=O)[C@H]1CC[C@H]2[C@@H]3CCC4=CC(=O)CC[C@]4(C)[C@H]3CC[C@]12C [Progesterone, reference compound]
